Results published in patent US20210038682A1, “MODULATORS OF SMALL CONDUCTANCE CALCIUM ACTIVATED K+ CHANNELS AND PHARMACEUTICAL COMPOSITIONS FOR USE IN THE TREATMENT OF LESIONAL VESTIBULAR DISORDERS” (priority 2018, published 2021).

Key:
UVN adult female rats [1] = assay: Subjective scoring of vestibular syndrome severity in the rat unilateral vestibular neurectomy model; type: in vivo
Protocol: (§1) A unilateral vestibular neurectomy (UVN) was performed on adult female rats in order to induce unilateral vestibulopathy. Then, the small conductance calcium activated K^+ channels antagonists apamin, AG525E1 and NS8593 were administered intraperitoneally to UVN animals in double blind conditions once a day for 4 days, i.e. during the acute phase of the syndrome. It was then assessed the severity of posturo-locomotor deficits using appropriate behavior tests for 10 days after UVN. Subjective scoring of the vestibular syndrome was carried out according to the method previously published (Péricat et al. 2017; Tighilet et al. 2017). […]

[2] = systemic administration; cited from earlier work
UVN adult female rats [3] = assay: Posturo-locomotor behavior tests (velocity, distance, immobility, meander) in the rat unilateral vestibular neurectomy model; type: in vivo; conditions: AG525E1 10 mg/kg i.p., from day 1
Protocol: as §1

For Cl.c1ccc2c(c1)CCC[C@H]2Nc1nc2ccccc2[nH]1 [NS8593, N-[(1R)-1,2,3,4-Tetrahydro-1-naphthalenyl]-1H-benzimidazol-2-amine hydrochloride], the Vestibular syndrome severity (UVN adult female rats [1]; NS8593 30 mg/kg i.p. once a day for 4 days, at day 1 and day 2, p<0.05 vs negative control) was “significant decreased vestibular syndrome”.

For CC(C)C[C@@H]1NC(=O)[C@H](C)NC(=O)[C@H]([C@@H](C)O)NC(=O)[C@H](CCC(=O)O)NC(=O)[C@@H]2CCCN2C(=O)[C@H](C)NC(=O)[C@H](CCCCN)NC(=O)[C@@H]2CSSC[C@@H](C(=O)N[C@@H](CCC(N)=O)C(=O)N[C@@H](CCC(N)=O)C(=O)N[C@@H](Cc3cnc[nH]3)C(N)=O)NC(=O)[C@H](CCCNC(=N)N)NC(=O)[C@H](CCCNC(=N)N)NC(=O)[C@H](C)NC(=O)[C@H](CSSC[C@H](N)C(=O)N[C@@H](CC(N)=O)C(=O)N2)NC1=O [apamin], the Blood-brain barrier crossing [2] is listed as “cross the blood-brain barrier”.

With COc1cc2c(cc1OC)C(CCCC1c3cc(OC)c(OC)cc3CCN1C)N(C)CC2 (stereo not shown) [AG525E1, 1,1′-(propane-1,3-diyl)-bis-(6,7-dimethoxy-2-methyl-1,2,3,4-tetrahydroisoquinoline)] the Vestibular syndrome severity (UVN adult female rats [1]; AG525E1 10 mg/kg i.p. once a day for 4 days, at day 1, p<0.05 vs negative control) was “significant decreased vestibular syndrome” and the Immobility time (UVN adult female rats [3]) was “tendency to reduce immobility time”.
